Key:
[1] = Malonic acid solubility in water at various temperatures; assay type: physicochemical; details: 65° C.
[2] = Thermal stability of malonic acid (decarboxylation to acetic acid); assay type: physicochemical

solubility limit of malonic acid [1]: 76 % wt/wt
temperature at which malonic acid decarboxylates to form acetic acid [2]: approximately 80 °C
temperature at which malonic acid begins to rapidly decompose ([2]; under acidic conditions): about 80 °C
SMILES: O=C(O)CC(=O)O [malonic acid, propanedioic acid]

From patent publication US11326191B2 (LYGOS, INC., priority 2016, dated 2022)
